US11331299B2, “Medicinal use of serrulatane diterpenes” (The University of Sydney, priority 2016, dated 2022)
Read-outs that look alike come from different tables or passages of the source.

Test system: 280 human cancer cell lines
Test: OncoPanel cell proliferation assay (10-day)
Format: cell-based
Conditions: Homo sapiens; for GI50: read-out: Cell Count GI50; for IC50: read-out: Cell Count IC50; for EC50: read-out: Cell Count EC50
[1] = SJRH30, SJRH30, Soft Tissue - Sarcoma
[2] = SJSA-1, SJSA1, Soft Tissue - Osteosarcoma
[3] = SK-LMS-1, SK-LMS-1, Soft Tissue - Sarcoma
[4] = SK-MEL3, SK-MEL-3, Skin (Melanoma)
[5] = SK-MEL-1, SK-MEL-1, Skin (Melanoma)
[6] = SK-MEL-28, SK-MEL-28, Skin (Melanoma)
[7] = SK-OV-3, SKOV3, Female GU - Ovary
[8] = SK-UT-1, SK-UT-1, Soft Tissue - Sarcoma
[9] = SW579, SW579, Endocrine - Thyroid
[10] = SW684, SW684, Soft Tissue - Sarcoma

CC(C)=CCC[C@H](CO)[C@@H]1CC[C@@H](C)c2c1cc(C)c(O)c2O [Compound 1, 7,8,18-trihydroxyserrulat-14-ene]
GI50 (SH-4, Skin (Melanoma)): 1940 nM
IC50 (SH-4, Skin (Melanoma)): 1950 nM
EC50 (SHP77, SHP-77, Lung - SCLC): 890 nM
GI50 (SHP77, SHP-77, Lung - SCLC): 890 nM
IC50 (SHP77, SHP-77, Lung - SCLC): 900 nM
EC50 [1]: 1420 nM
GI50 [1]: 1410 nM
IC50 [1]: 1420 nM
EC50 [2]: 1410 nM
GI50 [2]: 1410 nM
IC50 [2]: 1410 nM
EC50 (SK-BR-3, SK-BR-3, Breast): 1790 nM
GI50 (SK-BR-3, SK-BR-3, Breast): 1760 nM
IC50 (SK-BR-3, SK-BR-3, Breast): 1800 nM
EC50 [3]: 1570 nM
GI50 [3]: 1560 nM
IC50 [3]: 1570 nM
EC50 [4]: 4370 nM
GI50 [4]: 4280 nM
IC50 [4]: 4380 nM
EC50 [5]: 4290 nM
GI50 [5]: 4110 nM
IC50 [5]: 4410 nM
EC50 [6]: 1540 nM
GI50 [6]: 1530 nM
IC50 [6]: 1540 nM
EC50 (SK-MES-1, SKMES1, Lung - NSCLC): 1060 nM
GI50 (SK-MES-1, SKMES1, Lung - NSCLC): 1060 nM
IC50 (SK-MES-1, SKMES1, Lung - NSCLC): 1060 nM
EC50 (SK-N-AS, CNS - Neuroblastoma): 3580 nM
GI50 (SK-N-AS, CNS - Neuroblastoma): 3540 nM
IC50 (SK-N-AS, CNS - Neuroblastoma): 3580 nM
EC50 (SK-N-DZ, CNS - Neuroblastoma): 3160 nM
GI50 (SK-N-DZ, CNS - Neuroblastoma): 2940 nM
IC50 (SK-N-DZ, CNS - Neuroblastoma): 3160 nM
EC50 (SK-N-FI, CNS - Neuroblastoma): 7310 nM
GI50 (SK-N-FI, CNS - Neuroblastoma): 6320 nM
IC50 (SK-N-FI, CNS - Neuroblastoma): 7310 nM
EC50 [7]: 1580 nM
GI50 [7]: 1560 nM
IC50 [7]: 1580 nM
EC50 (SK-PN-DW, Stomach): 4660 nM
GI50 (SK-PN-DW, Stomach): 4630 nM
IC50 (SK-PN-DW, Stomach): 4660 nM
EC50 [8]: 2230 nM
GI50 [8]: 2220 nM
IC50 [8]: 2230 nM
EC50 (SKO-007, SKO-007, Myeloma): 990 nM
GI50 (SKO-007, SKO-007, Myeloma): 930 nM
IC50 (SKO-007, SKO-007, Myeloma): 990 nM
EC50 (SNB-19, SNB-19, CNS - Glioma): 1660 nM
GI50 (SNB-19, SNB-19, CNS - Glioma): 1650 nM
IC50 (SNB-19, SNB-19, CNS - Glioma): 1660 nM
EC50 (SNU1, SNU-1, Stomach): 1250 nM
GI50 (SNU1, SNU-1, Stomach): 1250 nM
IC50 (SNU1, SNU-1, Stomach): 1250 nM
EC50 (SNU-5, SNU-5, Stomach): 3920 nM
GI50 (SNU-5, SNU-5, Stomach): 3870 nM
IC50 (SNU-5, SNU-5, Stomach): 3920 nM
EC50 (SNU-16, SNU-16, Stomach): 1310 nM
GI50 (SNU-16, SNU-16, Stomach): 1310 nM
IC50 (SNU-16, SNU-16, Stomach): 1310 nM
EC50 (SNU-423, SNU-423, Liver): 1480 nM
GI50 (SNU-423, SNU-423, Liver): 1460 nM
IC50 (SNU-423, SNU-423, Liver): 1490 nM
EC50 (SR, Lymphoma): 3800 nM
GI50 (SR, Lymphoma): 3800 nM
IC50 (SR, Lymphoma): 3800 nM
EC50 (ST486, ST486, Lymphoma): 1090 nM
GI50 (ST486, ST486, Lymphoma): 1080 nM
IC50 (ST486, ST486, Lymphoma): 1090 nM
EC50 (SU-DHL10, SU-DHL-10, Lymphoma): 3940 nM
GI50 (SU-DHL10, SU-DHL-10, Lymphoma): 3930 nM
IC50 (SU-DHL10, SU-DHL-10, Lymphoma): 3940 nM
EC50 (SU-DHL-4, SU-DHL-4, Lymphoma): 2010 nM
GI50 (SU-DHL-4, SU-DHL-4, Lymphoma): 2010 nM
IC50 (SU-DHL-4, SU-DHL-4, Lymphoma): 2010 nM
EC50 (SU-DHL-5, SU-DHL-5, Lymphoma): 1200 nM
GI50 (SU-DHL-5, SU-DHL-5, Lymphoma): 1190 nM
IC50 (SU-DHL-5, SU-DHL-5, Lymphoma): 1200 nM
EC50 (SU-DHL-8, SU-DHL-8, Lymphoma): 1770 nM
GI50 (SU-DHL-8, SU-DHL-8, Lymphoma): 1770 nM
IC50 (SU-DHL-8, SU-DHL-8, Lymphoma): 1770 nM
EC50 (SU.86.86, SU.86.86, Pancreas): 7610 nM
GI50 (SU.86.86, SU.86.86, Pancreas): 7580 nM
IC50 (SU.86.86, SU.86.86, Pancreas): 7630 nM
EC50 (SUP-T1, SUP-T1, Lymphoma): 3960 nM
GI50 (SUP-T1, SUP-T1, Lymphoma): 3950 nM
IC50 (SUP-T1, SUP-T1, Lymphoma): 3960 nM
EC50 (SW48, SW48, Colon): 1330 nM
GI50 (SW48, SW48, Colon): 1320 nM
IC50 (SW48, SW48, Colon): 1330 nM
EC50 [9]: 1710 nM
GI50 [9]: 1690 nM
IC50 [9]: 1710 nM
EC50 [10]: 9370 nM
GI50 [10]: 8280 nM
IC50 [10]: 9370 nM
EC50 (SW837, SW837, Colon): 2350 nM
GI50 (SW837, SW837, Colon): 2330 nM
IC50 (SW837, SW837, Colon): 2370 nM
